The target in the assay is T1, BlrB (Cereibacter sphaeroides, UniProt Q3IYE4).
T1 construct: full-length short BLUF protein, residues 1-140, pET28a(+), His-tag removed by thrombin, E. coli BL21(DE3) glnA knockout; unlabelled and 15N-Gln samples
Briefly: light-induced FTIR difference spectroscopy of the reconstituted holoprotein. Conditions: FAD added for full reconstitution; flavin C4=O band of bound chromophore; pH 8.0; 20 °C. The assay is classed as binding.

T1 sequence (Q3IYE4 entry or part of it): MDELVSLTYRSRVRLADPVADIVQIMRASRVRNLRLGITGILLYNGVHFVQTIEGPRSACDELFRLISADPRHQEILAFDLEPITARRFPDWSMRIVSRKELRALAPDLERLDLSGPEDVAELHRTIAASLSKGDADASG

Consider `Cc1cc2nc3c(=O)[nH]c(=O)nc-3n(C[C@H](O)[C@H](O)[C@H](O)COP(=O)(O)OP(=O)(O)OC[C@H]3O[C@@H](n4cnc5c(N)ncnc54)[C@H](O)[C@@H]3O)c2cc1C` [flavin adenine dinucleotide], for which the “light-induced FTIR difference spectroscopy of the reconstituted holoprotein” value is recorded as “includes strong contributions from the C4=O stretch of flavin with an amide I band”.
